Source: patent US12357636B2 (Urovant Sciences GmbH, priority 2018, dated 2025)
Where two headings read alike, the source gives them in different places.

Experiments:
β1-AR = molecular target: T1, β1-AR (Homo sapiens, UniProt P08588); assay: competition binding assay, membranes with recombinant β1-AR
T1 construct: expressed in transfected cells; membranes prepared from them

β2-AR = β2-AR (Homo sapiens, UniProt P07550); assay: competition binding assay, membranes with recombinant β2-AR
[1] = multiple rising dose Phase 1 pharmacokinetics; format: in vivo, human
Text: Although exposures were similar in middle-aged males when compared to young males, plasma concentrations were higher in elderly compared to middle-aged and young subjects.

[2] = PK in renal impairment, single dose 100 mg; format: in vivo, human; conditions: for CL/F / Fe[urine] 48 hr / AUC0-inf: single 100 mg
Text: The relationship between clearance and renal function was modeled using linear regression.

[3] = PK in moderate hepatic impairment, single dose 100 mg; format: in vivo, human; conditions: single 100 mg, healthy matched control subjects
[4] = tested on: patients with overactive bladder
Text: A placebo group was included in the main study, and a group that received tolterodine monotherapy was included in the main study and in the extension.

patients with OAB = assay: Phase 2b study: cardiovascular safety, orthostatic AEs, blood pressure and heart rate changes (Table 17); format: in vivo, human
Text: None led to discontinuation. The overall incidence of orthostatic symptoms was low.
Small differences in the percent of subjects exceeding categorical heart rate and blood pressure thresholds for vibegron were similar to those in the tolterodine arm.

[5] = healthy matched control subjects
[6] = vibegron 3 mg, counts based on 3 consecutive post-baseline visits
[7] = vibegron 3 mg, mean maximum from week 1 to 8
[8] = vibegron 15 mg, counts based on 3 consecutive post-baseline visits

Sequence of β2-AR (P07550 whole entry): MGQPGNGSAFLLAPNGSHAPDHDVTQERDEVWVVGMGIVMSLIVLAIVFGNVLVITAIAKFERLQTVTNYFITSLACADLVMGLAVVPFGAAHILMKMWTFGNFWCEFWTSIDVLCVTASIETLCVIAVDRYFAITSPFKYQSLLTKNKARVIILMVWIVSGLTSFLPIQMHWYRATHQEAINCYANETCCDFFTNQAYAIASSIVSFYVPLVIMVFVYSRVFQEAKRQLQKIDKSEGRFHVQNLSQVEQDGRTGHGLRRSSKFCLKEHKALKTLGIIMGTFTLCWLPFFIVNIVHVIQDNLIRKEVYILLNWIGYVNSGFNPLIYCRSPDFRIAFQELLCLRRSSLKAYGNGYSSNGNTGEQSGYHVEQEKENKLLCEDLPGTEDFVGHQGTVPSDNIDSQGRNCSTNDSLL
T1 sequence (P08588 whole entry): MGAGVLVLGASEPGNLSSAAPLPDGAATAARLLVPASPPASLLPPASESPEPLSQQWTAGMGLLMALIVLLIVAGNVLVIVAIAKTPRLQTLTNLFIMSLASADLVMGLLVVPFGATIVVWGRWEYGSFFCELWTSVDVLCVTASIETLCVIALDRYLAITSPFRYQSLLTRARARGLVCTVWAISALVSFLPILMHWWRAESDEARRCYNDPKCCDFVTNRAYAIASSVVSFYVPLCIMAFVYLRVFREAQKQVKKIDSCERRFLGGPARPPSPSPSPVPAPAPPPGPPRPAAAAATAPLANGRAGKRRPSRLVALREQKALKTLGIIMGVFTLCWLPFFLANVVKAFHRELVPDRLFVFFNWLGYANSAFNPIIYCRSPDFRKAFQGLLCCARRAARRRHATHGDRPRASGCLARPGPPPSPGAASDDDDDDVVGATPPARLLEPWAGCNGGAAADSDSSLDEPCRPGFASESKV

Structure (SMILES): O=C(Nc1ccc(C[C@@H]2CC[C@H]([C@H](O)c3ccccc3)N2)cc1)[C@@H]1CCc2nccc(=O)n21 [Vibegron, (6S)—N-[4-[[(2S,5R)-5-[(R)-hydroxy(phenyl)methyl]pyrrolidin-2-yl]methyl]phenyl]-4-oxo-7,8-dihydro-6H-pyrrolo[1,2-a]pyrimidine-6-carboxamide]
- binding to β1-AR (β1-AR): does not bind
- binding to β2-AR (β2-AR): does not bind
- steady state Cmax, elderly compared to young males ([1]; 100 mg QD): ~1.3 fold
- fe0-24hr, ss ([1]; 100 mg, elderly subjects): ~17%
- AUC0-24 ([1]; 200 mg multiple dose, day 14, healthy young males): 3200 ± 1120 ng·h/mL
- fe0-24hr, ss ([1]; 100 and 150 mg, young males): ~14%
- steady state exposure (AUC0-24) higher in elderly Japanese than elderly non-Japanese ([1]; Day 14): 35%
- Cmax increase in elderly Japanese compared to elderly non-Japanese ([1]; in vivo): 82%
- higher Cmax in elderly and females than healthy young males ([1]; in vivo): 50-70%
- steady state AUC, middle-aged females compared to middle-aged males ([1]; in vivo): ~1.5 fold
- steady state exposures higher in Japanese than non-Japanese young males ([1]; in vivo): ~30%
- time to steady state ([1]; once daily dosing): ≤ 7 days
- exposure (AUC) higher in females compared with males ([1]; regardless of age): 50%
- mean increase in AUC, moderate renal impairment vs normal renal function ([2]; in vivo): 1.6 fold
- AUC0-inf higher compared to healthy matched controls ([2]; mild renal impairment): 49%
- CLR reduced compared to healthy matched controls ([2]; mild renal impairment): 39%
- Cmax higher compared to healthy matched controls ([2]; mild renal impairment): 96%
- AUC0-inf higher compared to healthy matched controls ([2]; moderate renal impairment): 106%
- CLR reduced compared to healthy matched controls ([2]; moderate renal impairment): 65%
- Cmax higher compared to healthy matched controls ([2]; moderate renal impairment): 68%
- AUC0-inf higher compared to healthy matched controls ([2]; severe renal impairment): 83%
- CLR reduced compared to healthy matched controls ([2]; severe renal impairment): 82%
- Cmax higher compared to healthy matched controls ([2]; severe renal impairment): 42%
- CL/F [2, 5]: 64.9 L/h
- Fe[urine] 48 hr [2, 5]: 7.9%
- AUC0-inf ([2]; mild renal impairment): 2290 ng·h/mL
- CL/F ([2]; mild renal impairment): 43.6 L/h
- Fe[urine] 48 hr ([2]; mild renal impairment): 8.5%
- CL/F ([2]; moderate renal impairment): 31.5 L/h
- Fe[urine] 48 hr ([2]; moderate renal impairment): 5.5%
- AUC0-inf ([2]; severe renal impairment): 2820 ng·h/mL
- CL/F ([2]; severe renal impairment): 35.5 L/h
- Fe[urine] 48 hr ([2]; severe renal impairment): 2.1%
- CL/F increase per one mL/min/1.73 m2 increase in eGFR ([2]; slope of linear regression): ~0.8%
- Apparent terminal t1/2 [3]: 92.5 (9.37%) hr
- Accidental overdose ([4]; 3 mg QD): 3 (2.1) n (%)
- Accidental overdose ([4]; 15 mg QD): 6 (4.5) n (%)
- Accidental overdose ([4]; 50 mg QD): 4 (2.7) n (%)
- Accidental overdose ([4]; 100 mg QD): 11 (4.2) n (%)
- ≥1 AE ([4]; 100 mg QD): 107 (41.0) n (%)
- frequency of injuries ([4]; human, in vivo): 0.9%
- SBP and DBP mean changes at Week 1 and mean maximum changes over 8 weeks, difference between placebo and vibegron (patients with OAB; 50 mg and 100 mg): < 1 mm Hg
- subjects with a change from baseline in DBP>15 mmHg (patients with OAB; 100 mg): 1.3%
- HR mean maximum changes over 8 weeks, compared to placebo (patients with OAB; in vivo): < 2 bpm
- DBP Change from Baseline [≥] 5 mm Hg, n/N (%) (patients with OAB; [6]): 14/140 (10.0) %
- DBP Change from Baseline [≥] 10 mm Hg, n/N (%) (patients with OAB; [6]): 3/140 (2.1) %
- DBP Change from Baseline ≥15 mm Hg, n/N (%) (patients with OAB; [6]): 1/140 (0.7) %
- HR Change from Baseline [≥] 10 bpm, n/N (%) (patients with OAB; [6]): 5/140 (3.6) %
- HR Change from Baseline ≥5 bpm, n/N (%) (patients with OAB; [6]): 16/140 (11.4) %
- HR Change from Baseline ≥15 bpm, n/N (%) (patients with OAB; [6]): 1/140 (0.7) %
- SBP Change from Baseline [≥] 5 mm Hg, n/N (%) (patients with OAB; [6]): 21/140 (15.0) %
- SBP Change from Baseline [≥] 10 mm Hg, n/N (%) (patients with OAB; [6]): 10/140 (7.1) %
- SBP Change from Baseline ≥15 mm Hg, n/N (%) (patients with OAB; [6]): 4/140 (2.9) %
- DBP Change from Baseline, Mean (95% CI) Max (patients with OAB; [7]): 5.03 (3.92, 6.15) mm Hg
- HR Change from Baseline, Mean (95% CI) Maximum (patients with OAB; [7]): 5.57 (4.25, 6.90) bpm
- SBP Change from Baseline, Mean (95% CI) Maximum (patients with OAB; [7]): 7.14 (5.18, 9.10) mm Hg
- DBP Change from Baseline, Mean (95% CI) (week 1) (patients with OAB; vibegron 3 mg, week 1): −0.37 (−1.69, 0.95) mm Hg
- HR Change from Baseline, Mean (95% CI) (week 1) (patients with OAB; vibegron 3 mg, week 1): 0.36 (−0.90, 1.62) bpm
- SBP Change from Baseline, Mean (95% CI) (week 1) (patients with OAB; vibegron 3 mg, week 1): −0.35 (−2.34, 1.65) mm Hg
- subjects with orthostatic related AEs (patients with OAB; vibegron 15 mg group): 0.3%
- DBP Change from Baseline [≥] 5 mm Hg, n/N (%) (patients with OAB; [8]): 15/132 (11.4) %
- DBP Change from Baseline [≥] 10 mm Hg, n/N (%) (patients with OAB; [8]): 3/132 (2.3) %
